Values after ≈ are worked out from the molar mass of the structure shown.
How the values were obtained:
DNA gyrase = DNA gyrase (Staphylococcus aureus, UniProt P0A0K8+P20831); test: Inhibition of Staphylococcus aureus DNA gyrase incubated for 30 mins by fluorescence based analysis; format: protein-complex assay
Staphylococcus aureus [1] = test: Antibacterial activity against Staphylococcus aureus ATCC 43300 assessed as microbial inhibition incubated for 24 hrs by broth micro-dilution method; format: functional
Staphylococcus aureus [2] = test: Antibacterial activity against methicillin-resistant Staphylococcus aureus assessed as inhibition of bacterial growth measured after 24 hrs by broth micro-dilution method; format: functional
Staphylococcus aureus [3] = test: Antibacterial activity against Methicillin-resistant Staphylococcus aureus AUMC 261 assessed as bacterial growth inhibition incubated for 24 hrs by broth microdilution analysis; format: functional
Staphylococcus aureus [4] = test: Antimicrobial activity against Methicillin-resistant Staphylococcus aureus ATCC 43300 assessed as bacterial growth inhibition incubated for 18 hrs by broth micro-dilution method; format: functional
Escherichia coli [5] = test: Antibacterial activity against Escherichia coli ATCC 35210 assessed as reduction in bacterial growth by broth microdilution method; format: functional
Pseudomonas aeruginosa = test: Antibacterial activity against Pseudomonas aeruginosa assessed as reduction in bacterial growth by broth microdilution method; format: functional
Staphylococcus aureus [6] = test: Antibacterial activity against Methicillin-sensitive Staphylococcus aureus ATCC 6538 assessed as reduction in microbial growth; format: functional
Staphylococcus aureus [7] = test: Antibacterial activity against methicillin-resistant Staphylococcus aureus ATCC 43300 assessed as reduction in bacterial growth by CLSI protocol based broth microdilution method; format: functional
Staphylococcus aureus [8] = test: Antibacterial activity against methicillin-resistant Staphylococcus aureus ATCC 43300 assessed as bacterial growth inhibition incubated for 24 hrs by broth dilution method; format: functional
Staphylococcus aureus [9] = test: Antibacterial activity against […] Staphylococcus aureus ATCC 6538 assessed as bacterial growth inhibition incubated for 24 hrs by broth micro-dilution method; format: functional
Staphylococcus aureus [10] = test: Antibacterial activity against Methicillin-resistant Staphylococcus aureus […] assessed as reduction in microbial growth incubated for 18 to 24 hrs by broth micro-dilution method; format: functional; details: time 18-24 hrs
Escherichia coli [11] = test: Antibiofilm activity against Escherichia coli ATCC 25922 assessed as reduction in biofilm formation at 50 uM incubated for 24 hrs by crystal violet staining based analysis relative to control; format: functional; set-up: scale not given: the % may be the effect or the level left
Escherichia coli [12] = test: Antibacterial activity against Escherichia coli ATCC 25922 assessed as reduction in bacterial growth incubated for 18 to 24 hrs by broth microdilution method; format: functional; details: time 18-24 hrs
Staphylococcus aureus [13] = test: Antimicrobial activity against methicillin-resistant Staphylococcus aureus assessed as inhibition of microbial growth incubated for 16 hrs by microdilution method; format: functional, organism-based
Escherichia coli [14] = test: Antibacterial activity against Escherichia coli ATCC 35210 assessed as reduction in microbial growth; format: functional
Staphylococcus aureus [15] = test: Antibacterial activity against Methicillin-resistant Staphylococcus aureus assessed as reduction of microbial growth by Muller Hinton broth based dilution assay; format: functional
Staphylococcus aureus [16] = test: Antimicrobial activity against Methicillin-resistant Staphylococcus aureus ATCC 43300 assessed as bacterial growth inhibition measured after 18 hrs by CLSI based Muller Hinton broth microdilution method; format: functional
Staphylococcus aureus [17] = test: Antimicrobial activity against Methicillin-resistant Staphylococcus aureus ATCC BAA41 assessed as bacterial growth inhibition measured after 18 hrs by CLSI based Muller Hinton broth microdilution method; format: functional
Staphylococcus aureus [18] = test: Antimicrobial activity against Methicillin-resistant Staphylococcus aureus ATCC 33591 assessed as bacterial growth inhibition measured after 18 hrs by CLSI based Muller Hinton broth microdilution method; format: functional
Staphylococcus aureus [19] = test: Antibacterial activity against clinical isolate Methicillin resistant Staphylococcus aureus 2658 RCMB assessed as reduction in microbial growth incubated for 16 to 24 hrs by CLSI-based Muller Hinton broth based microdilution method; format: functional; details: time 16-24 hrs
Staphylococcus aureus [20] = test: Antibacterial activity against methicillin-resistant Staphylococcus aureus ATCC 33592 assessed as reduction in microbial growth incubated for 16 to 20 hrs by CLSI based two-fold serial dilution method; format: functional; details: time 16-20 hrs
Staphylococcus aureus [21] = test: Antibacterial activity against […] Staphylococcus aureus ATCC 6538 assessed as reduction in bacterial growth incubated for 24 hrs by broth micro-dilution method; format: functional

Sequence of DNA gyrase (P0A0K8 whole entry): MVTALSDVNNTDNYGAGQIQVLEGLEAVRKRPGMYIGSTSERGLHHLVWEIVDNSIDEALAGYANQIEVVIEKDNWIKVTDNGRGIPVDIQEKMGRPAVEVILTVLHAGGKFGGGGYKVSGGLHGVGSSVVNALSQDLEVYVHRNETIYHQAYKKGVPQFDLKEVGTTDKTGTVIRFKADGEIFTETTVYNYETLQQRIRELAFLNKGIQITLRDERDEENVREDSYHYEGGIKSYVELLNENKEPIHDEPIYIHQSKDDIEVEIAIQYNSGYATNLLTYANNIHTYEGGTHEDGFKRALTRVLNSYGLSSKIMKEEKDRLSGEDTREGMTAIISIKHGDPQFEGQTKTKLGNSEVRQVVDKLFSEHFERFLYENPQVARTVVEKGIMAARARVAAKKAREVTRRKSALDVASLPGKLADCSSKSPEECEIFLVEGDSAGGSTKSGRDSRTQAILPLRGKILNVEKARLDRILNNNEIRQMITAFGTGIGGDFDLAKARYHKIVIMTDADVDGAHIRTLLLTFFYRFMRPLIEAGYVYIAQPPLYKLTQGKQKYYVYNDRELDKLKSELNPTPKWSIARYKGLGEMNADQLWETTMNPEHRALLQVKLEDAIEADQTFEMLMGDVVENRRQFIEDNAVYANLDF
Sequence of DNA gyrase (P20831 whole entry): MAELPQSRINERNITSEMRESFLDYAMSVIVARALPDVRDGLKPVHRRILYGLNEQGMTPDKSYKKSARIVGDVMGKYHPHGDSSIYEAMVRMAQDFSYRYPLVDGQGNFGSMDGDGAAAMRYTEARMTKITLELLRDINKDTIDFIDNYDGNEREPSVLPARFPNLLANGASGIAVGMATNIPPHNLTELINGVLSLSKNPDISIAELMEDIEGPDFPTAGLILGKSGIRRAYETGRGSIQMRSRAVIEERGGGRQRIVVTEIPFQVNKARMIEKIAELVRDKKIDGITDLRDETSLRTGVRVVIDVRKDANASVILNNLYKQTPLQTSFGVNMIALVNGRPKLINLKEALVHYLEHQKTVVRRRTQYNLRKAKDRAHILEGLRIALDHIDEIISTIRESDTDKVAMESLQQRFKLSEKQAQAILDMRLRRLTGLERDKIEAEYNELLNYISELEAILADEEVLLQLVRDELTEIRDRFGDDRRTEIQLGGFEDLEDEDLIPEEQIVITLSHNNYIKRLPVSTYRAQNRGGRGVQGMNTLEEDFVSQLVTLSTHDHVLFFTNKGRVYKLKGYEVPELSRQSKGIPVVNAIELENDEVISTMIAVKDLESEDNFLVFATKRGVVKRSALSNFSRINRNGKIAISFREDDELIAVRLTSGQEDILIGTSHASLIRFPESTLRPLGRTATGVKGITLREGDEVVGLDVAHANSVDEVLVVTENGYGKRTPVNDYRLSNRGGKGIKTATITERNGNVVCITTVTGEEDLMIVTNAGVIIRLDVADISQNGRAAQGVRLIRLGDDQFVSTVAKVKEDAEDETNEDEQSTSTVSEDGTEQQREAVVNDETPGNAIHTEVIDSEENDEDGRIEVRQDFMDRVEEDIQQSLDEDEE

O=S(=O)(c1ccc2nc3s/c(=N/N=C\c4cccs4)n(-c4ccc(Cl)cc4)c3nc2c1)N1CCOCC1 showed an IC50 (DNA gyrase) of 10.4 µM and an MIC (Staphylococcus aureus [1]) of 1.25 µg/mL (≈ 2.19 µM).
Molecule COc1ccc(/C=c2/s/c(=C/c3ncc(C)s3)[nH]c2=O)cc1 has an MIC (Staphylococcus aureus [2]) of 40 µg/mL (≈ 121 µM).
With O=C(O)c1cn(C2CC2)c2cc(N3CCN(C(=O)CN4C(=O)S/C(=C\c5ccccc5)C4=O)CC3)c(F)cc2c1=O the MIC (Staphylococcus aureus [3]) was 2.88 µg/mL (≈ 4.99 µM).
In the case of O=C(O)c1cn(C2CC2)c2cc(N3CCN(C(=O)CN4C(=O)S/C(=C\c5ccoc5)C4=O)CC3)c(F)cc2c1=O, the MIC (Staphylococcus aureus [3]) is reported as 2.88 µg/mL (≈ 5.08 µM).
In the case of Cc1cnc(/C=c2\[nH]c(=O)/c(=C\c3cccc(F)c3)s2)s1, the MIC (Staphylococcus aureus [2]) is reported as 40 µg/mL (≈ 126 µM).
O=C(O)c1cn(C2CC2)c2cc(N3CCNCC3)c(F)cc2c1=O [CIPROFLOXACIN] showed an MIC (Staphylococcus aureus [3]) of 0.2 µg/mL (≈ 0.604 µM) and an MIC (Staphylococcus aureus [4]) of 32 µg/mL (≈ 96.6 µM).
With COc1cc(CCN)c(-c2csc(-c3ccc(O)cc3)n2)cc1OC the MIC (Escherichia coli [5]) was < 230 µg/mL, the MIC (Pseudomonas aeruginosa) was < 230 µg/mL and the MIC (Staphylococcus aureus [6]) was 700 µg/mL.
Molecule O=C1CSC(c2c(F)cccc2Cl)N1c1nc2ccc(OC(F)(F)F)cc2s1 (stereo not given) has an MIC (Staphylococcus aureus [7]) of 250 µg/mL (≈ 557 µM) and an MBC (Staphylococcus aureus [8]) of 120 µg/mL (≈ 267 µM).
N#C/C(C(=O)NCc1ccco1)=C1/SC(Cc2ccc(Cl)cc2)C(=O)N1c1ccccc1 (stereo not given) was tested, and the MIC (Staphylococcus aureus [4]) was 4 µg/mL (≈ 8.62 µM).
O=C1CSC(c2ccc(O)cc2)N1c1nc2ccc(OC(F)(F)F)cc2s1 (stereo not given) gave an MIC (Staphylococcus aureus [7]) of 250 µg/mL (≈ 606 µM) and an MBC (Staphylococcus aureus [8]) of 120 µg/mL (≈ 291 µM).
Work on O=C1CSC(c2ccc([N+](=O)[O-])cc2)N1c1nc2c(Cl)cccc2s1 (stereo not given) yielded an MIC (Staphylococcus aureus [9]) of 90 µg/mL (≈ 230 µM).
O=C(O)c1cn(C2CC2)c2cc(N3CCN(C(=O)CN4C(=O)S/C(=C\c5ccc([N+](=O)[O-])cc5)C4=O)CC3)c(F)cc2c1=O was tested, and the MIC (Staphylococcus aureus [3]) was 2.88 µg/mL (≈ 4.63 µM).
CCOC1=NC(=N/N=C2\C(=O)Nc3ccc(Br)cc32)/S/C1=N/Nc1ccccc1 gave an MIC (Staphylococcus aureus [10]) of 8 µg/mL, an Activity (Escherichia coli [11]) of 90% and an MIC (Escherichia coli [12]) of 4 µg/mL (≈ 8.49 µM).
For CO/N=C(/COc1ccc2c(C)cc(=O)oc2c1)c1nccs1, the IC50 (Staphylococcus aureus [13]) was 1 µg/mL.
With N#Cc1c(N2CCN(CC(=O)Nc3nccs3)CC2)nc(-c2ccco2)c2c1CCC2 the MIC (Escherichia coli [14]) was 230 µg/mL.
Molecule O=C(/C(=C/c1ccc(-c2ccc([N+](=O)[O-])cc2)cc1)Oc1ccc2c(CN(CCO)CCO)cc(=O)oc2c1)c1nccs1 has an MIC (Staphylococcus aureus [15]) of 4 µg/mL.
Molecule CN1/C(=C/c2cc(/C=C/c3cccnc3)[n+](C)c3ccccc23)Sc2ccccc21.[I-] has an MIC (Staphylococcus aureus [16]) of 1.5 µg/mL, an MIC (Staphylococcus aureus [17]) of 1.5 µg/mL and an MIC (Staphylococcus aureus [18]) of 1.5 µg/mL.
In the case of Cc1nc(-c2ccc3ccccc3c2)sc1-c1nnc(NC(=N)N)o1, the MIC (Staphylococcus aureus [19]) is reported as 1.9 µg/mL.
In the case of CC(C)Cc1nc(N2CCN(CC(=O)Nc3nccs3)CC2)c(C#N)c2c1CCC2, the MIC (Escherichia coli [14]) is reported as 230 µg/mL.
O=C1CSC(c2ccc(Cl)cc2Cl)N1c1nc2ccc(OC(F)(F)F)cc2s1 (stereo not given) was tested, and the MIC (Staphylococcus aureus [7]) was 250 µg/mL (≈ 537 µM) and the MBC (Staphylococcus aureus [8]) was 120 µg/mL (≈ 258 µM).
In the case of CCc1nc(N2CCN(CC(=O)Nc3nccs3)CC2)c(C#N)c2c1COC(C)(C)C2, the MIC (Escherichia coli [14]) is reported as 230 µg/mL.
In the case of O=C1CSC(c2c(F)cccc2F)N1c1nc2ccc(OC(F)(F)F)cc2s1 (stereo not given), the MIC (Staphylococcus aureus [7]) is reported as 250 µg/mL (≈ 578 µM) and the MBC (Staphylococcus aureus [8]) is reported as 120 µg/mL (≈ 278 µM).
Work on O=C1CSC(c2ccc(Cl)cc2)N1c1nc2ccc(OC(F)(F)F)cc2s1 (stereo not given) yielded an MIC (Staphylococcus aureus [7]) of 250 µg/mL (≈ 580 µM) and an MBC (Staphylococcus aureus [8]) of 120 µg/mL (≈ 279 µM).
O=C1CSC(c2cccc(Cl)c2Cl)N1c1nc2ccc(OC(F)(F)F)cc2s1 (stereo not given) was tested, and the MIC (Staphylococcus aureus [7]) was 250 µg/mL (≈ 537 µM) and the MBC (Staphylococcus aureus [8]) was 120 µg/mL (≈ 258 µM).
In the case of CCn1cc(-c2csc(N)n2)c(=O)c2cc(F)c(N3CCN(Cc4ccc(Cl)c(Cl)c4)CC3)cc21, the MIC (Staphylococcus aureus [20]) is reported as 8 µg/mL.
Molecule O=C1CSC(c2ccc([N+](=O)[O-])cc2)N1c1nc2ccc(Cl)cc2s1 (stereo not given) has an MIC (Staphylococcus aureus [21]) of 100 µg/mL (≈ 255 µM).
